Data published in paper PMC4139099 (Biochimica et biophysica acta, 2013).
Where no end group is shown, it is not given here.

What was measured:
pepsin = pepsin (Sus scrofa, UniProt P00791); conditions: cited from earlier work
chymotrypsin [1] = biological target: T1, chymotrypsin (Bos taurus, UniProt P00766); conditions: cited from earlier work
trypsin [2] = biological target: T2, trypsin (Sus scrofa, UniProt P00761); conditions: cited from earlier work
mice = experiment: Toxicity and behavior in mice; assay type: in vivo; conditions: i.p. 40 μg/g
thermolysin = biological target: T3, thermolysin (Bacillus thermoproteolyticus, UniProt P00800); experiment: Proteolytic and thermal stability against thermolysin; assay type: in vitro ADME; conditions: thermolysin from Bacillus thermoproteolyticus Rokko; 65 °C, up to 12 h
T3 sequence (P00800 233-548): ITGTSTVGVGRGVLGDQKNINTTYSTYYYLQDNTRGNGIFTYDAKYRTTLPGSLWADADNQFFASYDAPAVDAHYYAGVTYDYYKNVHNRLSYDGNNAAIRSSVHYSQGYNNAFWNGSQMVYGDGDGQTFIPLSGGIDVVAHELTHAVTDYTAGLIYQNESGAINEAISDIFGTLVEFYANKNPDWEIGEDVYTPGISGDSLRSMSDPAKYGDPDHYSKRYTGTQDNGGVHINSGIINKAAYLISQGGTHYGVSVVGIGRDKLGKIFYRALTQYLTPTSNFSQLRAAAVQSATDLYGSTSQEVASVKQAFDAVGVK

trypsin [3] = biological target: T2, trypsin; experiment: Trypsin inhibitory assay; assay type: biochemical; conditions: up to the concentration of 100 μg/mL
proteinase K = proteinase K (Parengyodontium album, UniProt P06873); experiment: Proteolytic and thermal stability against proteinase K; assay type: in vitro ADME; conditions: proteinase K from Tritirachium album; 50 °C, up to 48 h
chymotrypsin [4] = biological target: T1, chymotrypsin; experiment: Chymotrypsin inhibitory assay; assay type: biochemical; conditions: up to the concentration of 100 μg/mL
chicks = experiment: Toxicity and behavior in chicks; assay type: in vivo; conditions: i.c.v. 60 μg/g
[5] = tested on: murine cerebrocortical neuron cells; experiment: Veratridine-induced neuronal Ca2+ influx; assay type: cell-based; conditions: data not shown
[6] = Solubility in water or low pH buffers; conditions: pure water or low pH buffers

T2 sequence (P00761 9-231): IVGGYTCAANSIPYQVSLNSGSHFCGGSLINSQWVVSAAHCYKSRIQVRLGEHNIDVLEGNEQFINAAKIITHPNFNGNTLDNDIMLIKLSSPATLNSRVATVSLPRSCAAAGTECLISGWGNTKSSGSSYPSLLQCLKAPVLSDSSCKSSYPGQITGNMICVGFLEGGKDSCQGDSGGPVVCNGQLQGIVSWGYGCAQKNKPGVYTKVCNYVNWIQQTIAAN
Chain of proteinase K (P06873 106-384): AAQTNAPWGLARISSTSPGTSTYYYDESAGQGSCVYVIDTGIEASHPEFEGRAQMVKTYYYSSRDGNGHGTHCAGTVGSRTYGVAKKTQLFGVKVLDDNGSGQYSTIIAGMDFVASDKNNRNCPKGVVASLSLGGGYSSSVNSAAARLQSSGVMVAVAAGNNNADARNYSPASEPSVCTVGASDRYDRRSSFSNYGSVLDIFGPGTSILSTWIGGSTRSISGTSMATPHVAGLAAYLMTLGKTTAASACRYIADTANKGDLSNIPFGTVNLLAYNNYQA
Chain of pepsin (P00791 60-385): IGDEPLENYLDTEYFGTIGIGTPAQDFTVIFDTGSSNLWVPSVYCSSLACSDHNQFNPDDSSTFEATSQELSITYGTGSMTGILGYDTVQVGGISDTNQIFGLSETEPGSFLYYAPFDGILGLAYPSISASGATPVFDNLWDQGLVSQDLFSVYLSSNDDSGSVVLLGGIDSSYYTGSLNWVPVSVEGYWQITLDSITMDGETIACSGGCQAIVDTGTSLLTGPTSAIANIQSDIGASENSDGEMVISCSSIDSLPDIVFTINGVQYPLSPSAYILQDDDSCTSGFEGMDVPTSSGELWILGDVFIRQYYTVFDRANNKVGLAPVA

## kalata B1 (GLPVCGETCVGGTCNTPGCTCSWPVCTRN; not fully specified; ends and bridges not checked; UniProt P56254 89-117, looked up)
pepsin
  stability towards pepsin: exhibits stability
Chymotrypsin [1]
  stability towards chymotrypsin: exhibits stability
Trypsin [2]
  stability towards trypsin: exhibits stability

## ω-conotoxin MVIIA [ziconotide]
Trypsin [2]
  stability to trypsin: unstable

## asteropsin A [ASPA]
mice
  toxic effects or behavior changes in mice: no toxic effects or behavior changes
thermolysin
  proteolytic and thermal stability against thermolysin: exceptional proteolytic and thermal stability
Trypsin [3]
  effect in trypsin inhibitory assay: no effects
Proteinase K
  proteolytic and thermal stability against proteinase K: exceptional proteolytic and thermal stability
Chymotrypsin [4]
  effect in chymotrypsin inhibitory assay: no effects
chicks
  toxic effects or behavior changes in chicks: no toxic effects or behavior changes

## asteropsin C [ASPC]
mice
  toxic effects or behavior changes in mice: no toxic effects or behavior changes
Trypsin [3]
  effect in trypsin inhibitory assay: no effects
[5]
  effect on neuronal Ca2+ influx: no effect
Proteinase K
  proteolytic and thermal stability against proteinase K: exceptional proteolytic and thermal stability
[6]
  solubility: virtually insoluble
Chymotrypsin [4]
  effect in chymotrypsin inhibitory assay: no effects
chicks
  toxic effects or behavior changes in chicks: no toxic effects or behavior changes
